Measurements as given in article PMC10976160, “Comparative Pharmacokinetics Research of 13 Bioactive Components of Jieyu Pills in Control and Attention Deficit Hyperactivity Disorder Model Rats Based on UPLC-Orbitrap Fusion MS” (Molecules, 2024).
Read-outs that look alike come from different tables or passages of the source. One block for each compound: values may come before it.

Assays:
[1] = Pharmacokinetics in ADHD model rats after gavage of JYPs; type: in vivo, SHR rats (ADHD model); settings: for peak time / half-life: ADHD model rats, oral JYPs; for removed within 12 h: ADHD rats (as printed, in the control-group section); for half-life: male, SHR, plasma
Experimental: Based on the established analytical method for plasma samples, a pharmacokinetic study was conducted on 13 constituents in the plasma of ADHD model rats after gavage of JYPs (Figure 3). The linearity of ln(AUC0-t)–ln(dose) and ln(Cmax)–ln(dose) was analyzed in the same way.
(§1) For the control experiment, healthy male Sprague Dawley (SD) rats of SPF grade ([…] ± 20 g) were purchased from Sipeifu (Beijing) Biotechnology Co., Ltd. (Beijing, China), Animal Quality Certificate No. 110324220102348616. For the ADHD model rats, healthy male SHR rats of SPF grade, weighing 220 ± 20 g, were purchased from SBF (Beijing) Biotechnology Co., Ltd. (Beijing, China), License No. SCXK (Yu) 2019-0010. The animals were accommodated in the Animal Center of Henan University of Traditional Chinese Medicine, which successfully underwent an ethical audit with ethics number DWLL202208003. The animals were bred under controlled conditions at a temperature of 24 °C and a relative humidity of 50 ± 2%. Before the experiment, the animals abstained from eating for 12 h and had unrestricted access to water. The feeding and experimental research conducted on the experimental animals adhered to the laws outlined in the Management of Experimental Animals in Henan Province.
(§2) JYPs were ground into a fine powder and sieved through 60-mesh sieves; then, 20 g of fine JYP powder was taken, having been weighed precisely. A precise volume of 50 mL of pure water was added and mixed well to prepare a 0.4 g/mL suspension solution of JYPs, which was then stored in the refrigerator at 4 °C.
(§3) This study involved 24 healthy male SD rats with a body mass of 220 ± 20 g and 24 healthy male ADHD rats with a body mass of 220 ± 20 g. Subjects abstained from food for a duration of 12 h before the experiment and consumed water without restriction. Both kinds of rats were randomly divided into four groups: a blank group, given an equal dose of water intragastrically, and 3 different administration groups: rats given the equivalent human dose of JYPs by gavage in doses of 1.080 g/kg/d, 2.160 g/kg/d, and 4.320 g/kg/d. Tail vein blood was collected at 0.083, 0.25, 0.5, 0.75, 1, 1.5, 2, 3, 4, 6, 8, 12, 18, and 24 h after dosing. About 0.5 mL of blood was collected in sodium heparin centrifugal tubes, then centrifuged at 4 °C for 10 min at a speed of 3500r/min. We took the upper layer and placed it at −80 °C for preservation.
(§4) We took 200 μL of plasma, added 600 μL of methanol solution and 50 μL of internal standard (100 ng/mL), and subjected it to shaking for 5 min, followed by centrifugation at 4 °C at 12,000 r/min for 10 min. The supernatant was collected and allowed to dry, then reconstituted with 50 μL of 50% methanol and centrifuged at 4 °C at 14,000 r/min for a further 10 min. The supernatant after this process was taken as the test solution. A volume of 5 μL was used for UPLC-MS analysis. The drug concentration in plasma was calculated with the aid of the internal standard.
Chromatographic conditions: Hypersil GOLD (100 × 2.1 mm, 1.9 μm) column; column temperature 35 °C; mobile phase acetonitrile (A)/0.1% formic acid aqueous solution (B); gradient elution; gradient elution program: 0–0.5 min (95% B–95% B), 0.5–8 min (95% B–50% B), 8–14 min (50% B–20% B), 14–20 min (20% B–5% B), 20–22 min (5% B–5% B), 22–25 min (95% B–95% B); flow rate 0.2 mL/min; injection volume 5 μL. The ion source was electrospray ionization (ESI), with positive and negative ion mode spray voltages of 3.50 and 3.0 kV, an ion transfer tube temperature of 300 °C, nitrogen as the carrier gas, a sheath gas pressure of 35 arb, an auxiliary gas pressure of 8 arb, and an auxiliary heater temperature of 275 °C.

[2] = Pharmacokinetics in control rats after gavage of JYPs; type: in vivo, Sprague Dawley (SD) rats; settings: for half-life / Tmax / AUC(0-inf) / AUC(0-t) / Cmax / MRT last / MRT inf: male, rat, plasma; for Tmax: po; for MRT last: read-out: MRT(0-t); for MRT inf: read-out: MRT(0-∞)
From the text: According to the established method for the analysis of serum biological samples, the pharmacokinetics of various components of rat serum were investigated after the administration of different dosages of JYPs to control rats.
as §1, §2, §3, §4
Chromatographic conditions: Hypersil GOLD (100 × 2.1 mm, 1.9 μm) column; column temperature 35 °C; mobile phase acetonitrile (A)/0.1% formic acid aqueous solution (B); gradient elution; gradient elution program: 0–0.5 min (95% B–95% B), 0.5–8 min (95% B–50% B), 8–14 min (50% B–20% B), 14–20 min (20% B–5% B), 20–22 min (5% B–5% B), 22–25 min (95% B–95% B); flow rate 0.2 mL/min; injection volume 5 μL.

[3] = Sprague Dawley, oral JYPs, range over compounds and doses, read-out: half-life (t1/2)
[4] = Sprague Dawley, oral JYPs, read-out: peak time (Tmax)
[5] = Sprague-Dawley, 1.08 g/kg/day, oral JYPs low dose 1.080 g/kg/d (1st of 3 values)
[6] = Sprague-Dawley, 2.16 g/kg/day, oral JYPs medium dose 2.160 g/kg/d (2nd of 3 values)
[7] = Sprague-Dawley, 4.32 g/kg/day, oral JYPs high dose 4.320 g/kg/d (3rd of 3 values)
[8] = oral JYPs high dose 4.320 g/kg/d (3rd of 3 values)
[9] = oral JYPs low dose 1.080 g/kg/d (1st of 3 values)
[10] = oral JYPs medium dose 2.160 g/kg/d (2nd of 3 values)

peak time [1]: less than 1 h
removed within 12 h [1]: approximately 80%
Tmax, model rats compared with control rats ([1]; high-dose group): significantly shorter
Cmax, model rats compared with control rats ([1]; middle- and high-dose administration groups): significantly greater
Structure (SMILES): CC12CC(O)C3CC1(OC1OC(CO)C(O)C(O)C1O)C3(COC(=O)c1ccccc1)C(=O)O2 (stereo not shown) [Albiflorin]

Tmax [2, 4]: < 1 h
peak time [1]: less than 1 h
removed within 12 h [1]: approximately 80%
Structure (SMILES): C[C@@]12C[C@@]3(O)O[C@@H](O1)[C@]1(COC(=O)c4ccccc4)[C@H]3C[C@@]12O[C@@H]1O[C@H](CO)[C@@H](O)[C@H](O)[C@H]1O [Paeoniflorin]

half-life [2, 3]: 7.61 to 12.2 h
Tmax [2, 4]: < 4 h
peak time [1]: less than 4 h
half-life ([1]; rat): < 10.3 h
Cmax, ADHD rats compared with control rats ([1]; rat, in vivo): significantly higher
Structure (SMILES): C=C(CC[C@@H](C(=O)O)[C@H]1[C@H](O)C[C@@]2(C)C3=CC[C@@H](C(=C)C)[C@](C)(CCC(=O)O)C3=CC[C@]12C)C(C)C [Poricoic acid A]

half-life [2, 3]: 7.61 to 12.2 h
Tmax [2, 4]: < 4 h
peak time [1]: less than 4 h
half-life ([1]; rat): < 10.3 h
t1/2, pathological condition compared with control rats ([1]; rat, in vivo): shorter
Structure (SMILES): C=C(C)[C@@H]1CC=C2C(=CC[C@]3(C)[C@@H]([C@@H](CCC=C(C)C)C(=O)O)[C@H](O)C[C@@]23C)[C@@]1(C)CCC(=O)O [Poricoic acid B]

The next lines start with the compound.

Structure (SMILES): COc1cc(/C=C/C(=O)O)ccc1O [Ferulic acid]
half-life [2, 3]: 9.53 to 16.8 h
Tmax [2, 4]: < 1 h

Structure (SMILES): CCCC=C1OC(=O)C2=C1CCC1C3C=C4C(=O)OC(=CCCC)C4(CC3)C21 (stereo not shown) [Levistilide A]
half-life [2, 3]: 14.4 to 24 h
Tmax [2, 4]: < 2 h
AUC(0-inf) [2, 5]: 25.2 ± 7.16 ng·h/mL
AUC(0-t) [2, 5]: 12.9 ± 4.96 ng·h/mL
Cmax [2, 5]: 1.79 ± 0.66 ng/mL
MRT last [2, 5]: 9.51 ± 1.01 h
MRT inf [2, 5]: 22.9 ± 7.04 h
half-life ([2]; Sprague-Dawley, 1.08 g/kg/day, oral JYPs low dose 1.080 g/kg/d (1st of 3 values), read-out: t1/2 (converted)): 14.4 ± 4.36 h
AUC(0-inf) [2, 6]: 34.2 ± 5.08 ng·h/mL
AUC(0-t) [2, 6]: 21.5 ± 2.97 ng·h/mL
Cmax [2, 6]: 2.86 ± 0.52 ng/mL
MRT last [2, 6]: 9.23 ± 0.46 h
MRT inf [2, 6]: 24.1 ± 8.96 h
half-life ([2]; Sprague-Dawley, 2.16 g/kg/day, oral JYPs medium dose 2.160 g/kg/d (2nd of 3 values), read-out: t1/2 (converted)): 16.4 ± 7.3 h
AUC(0-inf) [2, 7]: 59.8 ± 23.1 ng·h/mL
AUC(0-t) [2, 7]: 36.7 ± 11.3 ng·h/mL
Cmax [2, 7]: 4.6 ± 2.01 ng/mL
MRT last [2, 7]: 8.92 ± 1.16 h
MRT inf [2, 7]: 31.2 ± 38.1 h
half-life ([2]; Sprague-Dawley, 4.32 g/kg/day, oral JYPs high dose 4.320 g/kg/d (3rd of 3 values), read-out: t1/2 (converted)): 22.1 ± 26.9 h
Tmax ([2]; Sprague-Dawley, 1.08 g/kg/day, oral JYPs low dose 1.080 g/kg/d (1st of 3 values), read-out: Tmax): 1.17 ± 0.41 h
Tmax ([2]; Sprague-Dawley, 2.16 g/kg/day, oral JYPs medium dose 2.160 g/kg/d (2nd of 3 values), read-out: Tmax): 0.92 ± 0.13 h
Tmax ([2]; Sprague-Dawley, 4.32 g/kg/day, oral JYPs high dose 4.320 g/kg/d (3rd of 3 values), read-out: Tmax): 1.67 ± 0.52 h
AUMC(0-t) [2, 8]: 323.93± 97.01 ng/mL*(h)²
AUMC(0-ꝏ) [2, 8]: 2493.49± 4004.18 ng/mL*(h)²
Clearances [2, 8]: 1455.57 ± 663.81 mL/h
Vss [2, 8]: 33463.62 ± 24837.03 mL
AUMC(0-t) [2, 9]: 150.01± 45.26 ng/mL*(h)²
AUMC(0-ꝏ) [2, 9]: 584.44± 254.39 ng/mL*(h)²
Clearances [2, 9]: 794.02 ± 199.77 mL/h
Vss [2, 9]: 17878.07 ± 6212.70 mL
AUMC(0-t) [2, 10]: 197.79±26.58 ng/mL*(h)²
AUMC(0-ꝏ) [2, 10]: 849.62± 407.65 ng/mL*(h)²
Clearances [2, 10]: 1123.37 ± 161.30 mL/h
Vss [2, 10]: 26341.48 ± 7666.95 mL

Structure (SMILES): O=C1C[C@@H](c2ccc(O)cc2)Oc2cc(O)ccc21 [Liquiritigenin]
half-life [2, 3]: 9.53 to 16.8 h
Tmax [2, 4]: < 1 h
peak time [1]: less than 1 h
AUC(0-t), ADHD rats compared with control rats ([1]; all dosages): significantly lower

Structure (SMILES): O=C1C[C@@H](c2ccc(O[C@@H]3O[C@H](CO)[C@@H](O)[C@H](O)[C@H]3O)cc2)Oc2cc(O)ccc21 [Liquiritin]
half-life [2, 3]: 9.53 to 16.8 h
Tmax [2, 4]: < 1 h
peak time [1]: less than 1 h
